# In US20250051266A1, “Novel GLV-Phenolamide: Biosynthesis and Function in Protecting Plants from Herbivore Attack” (Max-Planck-Gesellschaft zur Förderung der Wissenschaften …, priority 2021, published 2025):
# “Also recorded” adds a separate entry of the source.
# Columns and labels:
# [1] = test system: Empoasca leafhoppers; assay: In vivo Empoasca choice assay, compounds infiltrated into irMYC2 leaves; parameters: species or system Empoasca decipiens; details: synthetic CoP 7 μM, CP 100 μM, FP 10 μM in 0.1% DMSO infiltrated into irMYC2 leaves
# Description: The spermi-dine-derived metabolites could be excluded as mediators of Empoasca nonhost resistance based on the lack of responses of leafhoppers to the irDH29 and irCV86 lines (FIG. 5). To further explore the involvement of CoP, CP and FP, in vivo Empoasca choice assays were conducted by individually infiltrating physiologically relevant concentrations of synthetic CoP (7 μM), CP (100 μM) and FP (10 μM) into leaves of irMYC2 plants which were devoid of elicited phenolamides (FIG. 9 and FIG. 34).
# Two replicates of the 650 RILs from a 26-parent MAGIC population and their 26 parental 5 lines were planted at the WCCER field station, Prescott, Arizona, USA. To elicit a standardized herbivory response, leaves of all RILs, which were in the early-flowering stage were wounded and immediately treated with diluted Manduca sexta oral secretions (W+OS) or left untreated (control) and harvested on dry ice at 1 h and 72h. One week after metabolite sampling, all plants of the field population were screened for natural Empoasca leafhopper numbers and damage; these leafhoppers had opportunistically sampled the N. attenuata plants from neighboring native cu-cumber hostplants. The mQTL and eQTL mapping between SNPs and the relative abundance of each compound or transcript using a set of 646 RILs of the MAGIC population was done with the R package software GAPIT using General linear models (GLM). The multi-omics co-association network was built from correlations among metabolomes, transcriptomes, phytohormones and SNPs. […] Metabolome diversity and specialization and metabolic specificity was calculated using information theory by consider-ing the Shannon entropy of the idMS/MS frequency distributions. […] OS-induced volatile emissions were collected using polydimethylsiloxane (PDMS) tubing from 650 MAGIC RILs planted in the main MPI-CE glasshouse and analyzed bythermal desorption-gas chromatography-mass spectrometry (TD-GC-MS). […]
# [2] = target: NaPPO2 (Nicotiana attenuata, UniProt A0A1J6IKE9); assay: In vitro enzyme assay, substrate specificity of NaPPO2; format: biochemical; details: incubated with NaPPO2 and (Z)-3-hexenal
# NaPPO2, sequence (A0A1J6IKE9 entry or part of it): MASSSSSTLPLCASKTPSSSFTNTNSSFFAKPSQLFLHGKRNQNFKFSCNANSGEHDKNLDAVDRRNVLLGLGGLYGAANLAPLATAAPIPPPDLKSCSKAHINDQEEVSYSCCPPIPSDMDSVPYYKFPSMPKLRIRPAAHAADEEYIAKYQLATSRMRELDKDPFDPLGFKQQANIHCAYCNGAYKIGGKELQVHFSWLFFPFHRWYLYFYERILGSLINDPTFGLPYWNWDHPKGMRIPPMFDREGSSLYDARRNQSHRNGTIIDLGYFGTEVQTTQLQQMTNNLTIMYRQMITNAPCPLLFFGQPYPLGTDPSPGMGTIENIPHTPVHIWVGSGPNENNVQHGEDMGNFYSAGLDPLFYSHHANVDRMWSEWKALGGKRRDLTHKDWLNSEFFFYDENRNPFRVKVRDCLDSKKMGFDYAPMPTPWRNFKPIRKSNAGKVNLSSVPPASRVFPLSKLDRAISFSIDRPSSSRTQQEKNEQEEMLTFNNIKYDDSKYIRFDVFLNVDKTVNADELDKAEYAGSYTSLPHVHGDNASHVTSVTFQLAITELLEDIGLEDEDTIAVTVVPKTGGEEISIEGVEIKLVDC
# Description: Extracted ion chromatograms (EIC) for doubly charged CP dimer (m/z 250.13) and m/z 347.19 in E. coli expressing NaPPO1 and NaPPO2 with CP and Z3H or (E)-2-hexenal. Compounds 1, 2, 3, 4 denote isomers of CP dimer; compounds 5, 6 denote isomers of m/z 347.19.
# FIG. 53 Substrate specificity of NaPPO1 and NaPPO2 enzymes. Overlay of total ion chromatograms (TIC) of enzyme assays for authentic chlorogenic acid (CGA std), N-coumaroylputrescine (CoP std), (Z)-3-hexenal or (E)-2-hexenal with purified NaPPO1/NaPPO2 from E. coli. Compounds 1 and 2 denote CGA and CoP; 3 and 4 denote contamination peaks from (Z)-3-hexenal and CoP standards, respectively.
# To test this hypothesis, purified NaPPO1, NaPPO2 and NaBBL2 proteins with N-terminal hexahistidine tags after expression in Escherichia coli were isolated (FIGS. 44-45). Incubation of either NaPPO1 or NaPPO2 (NaPPO1/2) with CP and (Z)-3-hexenal yielded a m/z 347.19 peak with identical MS/MS spectrum and retention time as the m/z 347.19 induced in N. attenuata leaves (FIG. 46). Additionally, by-products of doubly charged CP dimers at m/z 250.13 ([M+2H]2+, C26H36N4O62+) which are not detected in oral secretion-induced leaves of N. attenuata WT (Data 2) were also produced in vitro (FIG. 16 and FIG. 47). These doubly charged CP dimers were only produced when the quantities of the (Z)-3-hexenal substrate were lower than those of the CP substrate in vitro. […]
# In vitro assays of NaPPO1, NaPPO2, and NaBBL2: NaPPO1, NaPPO2, and NaBBL2 enzyme activity assays were performed by incubating 100 μg of the purified recombinant protein in 84 mM acetate buffer (pH 4.8) containing 20 mM (E)-N-caffeoylputrescine (BOC Sciences, catalogue #: B0005-053482) and 1 M cis-3-hexenal (Sigma, catalogue #: W256102-SAMPLE-K) or trans-2-hexenal (Sigma, catalogue #: W256005-1KG-K). During incubation of the enzyme reactions at 8° C., 1 μL of the reactions buffer was directly injected and analyzed by LC-MS every h to detect products. […]
substance,measurement,setting,value
N-coumaroylputrescine [CoP],preference of Empoasca for irMYC2 plants,[1],did not alter the preference; also recorded: not affecting leafhopper behavior or performance
same,acceptance as substrate (new products),[2],not accepted as substrates
